The values that follow are results of earlier work, collected in US9260379B2 (Ocera Therapeutics, Inc., priority 2010, dated 2016).

For the series the following is noted: free acid.

For the compound `O=C(O)Cc1ccccc1` [phenyl acetic acid], the pKa (in general, the pH at which an ionisable group is half protonated) is recorded as roughly 4.28.
